Laboratory results reported in US20080293699A1, “Inhibitors of thapsigargin-induced cell death” (priority 2007, published 2008).
Entries after “also recorded” stand apart in the source; their conditions may differ.

Assays:
phospho-c-Jun = assay: Immunoblotting of thapsigargin-induced c-Jun phosphorylation in CSM14.1 cells; format: cell-based, rat; conditions: immunoblotting with phospho-specific antibody, 10 μM, 25 μM hits
Text: After confirming the pathway selectivity of compounds, additional downstream assays can be performed to map the specific signal transduction pathway inhibited by the compounds. In this regard, various antibody reagents are commercially available for assessing the status of the three major pathways known to be activated by ER stress: (1) PERK, (2) Ire1, and (3) ATF6 (Xu et al., J. Clinical Invest., 115:2656-2664, 2005). Immunoblotting experiments can be performed to assess the expression or phosphorylation (using phospho-specific antibodies) of marker proteins in these pathways. […] CSM 14.1 cells were cultured with DMSO or with 25 μM of hit compounds for two hours, followed by treatment of thapsigargin (15 μM). Cell lysates were prepared and analyzed by SDS-PAGE/immunoblotting using antibodies specific for phospho-c-Jun, phospho-eIF2α, phospho-p38 MAPK, and tubulin (a loading control). CSM14.1 cells were cultured with either DMSO or one of the active compounds at 1, 5, and 10 μM, followed two hours later by 15 μM TG. After two hrs, cell lysates were prepared, normalized for protein content, and either analyzed by SDS-PAGE/immunoblotting using anti-p38-MAPK pan-reactive antibody or phospho-specific antibody with ECL-based detection, followed by densitometry analysis of x-ray films, normalizing phosphor-p38 MAPK relative to total p38 MAPK, or analyzed using a meso-scale instrument from MSD and a procedure in which total p38 MAPK is captured on plates, and the relative amounts of phosphorylated protein were determined using phospho-specific antibody (MSD catalog #K15112D1). […] Suppression of p38 MAPK and c-Jun phosphorylation was dose-dependent, and could not be explained by a decline in total levels of these proteins. […] Proteolytic processing of ATF6 was also not inhibited by our hit compounds. […] Screens of other libraries (such as the NIH compound collection) may yield cytoprotective compounds with different mechanisms.
1) CSM14.1 cells were plated at a density of 2×10^5 cells/well at 6 well dish (Greiner Bio one) in DMEM containing 2% FBS and antibiotics.
2) After overnight incubation, cells were treated by DMSO (0.5%) or compounds (25 μM) for two hours, followed by TG (15 uM) treatment.
3) After two hours, cells were lyzed in 250 uL of lysis buffer and subjected to protein concentration decision, and to SDS PAGE/Western blotting using antibodies specific for phospho p38 MAPK (Cell signaling 9211), p38 MAPK (Santa Cruz-C20), phospho c-Jun (Cell signaling 9164), c-Jun (Santa Cruz-SC 1694), phospho eIF2α (Cell signaling 3597) and α-tubulin.
CSM 14.1 cells were cultured with DMSO or with 25 μM of hit compounds for two hours followed by treatment with thapsigargin (15 μM). Cell lysates were prepared and analyzed by SDS-PAGE/immunoblotting using antibodies specific for: c-Jun, phosphor-c-Jun (ser 73), eIF2a, phosphor-eIF2a (ser 51), p38 MAPK, phosphor-p38 MAPK (Thr180/Tyr182), ATF-6, CHOP and tubulin (loading control). ER stress-induced activation of C-Jun and p38 MAPK is suppressed by the 11 hit compounds.
CSM cells were treated with two compounds at increasing doses. Pre-incubation time, thapsigargin treatment, cell extract preparation and immunoblotting protocols were as described previously.

[1] = tested on: ASK1 binding to 14-3-3 protein; assay: Co-immunoprecipitation of ASK1 with 14-3-3 in transfected 293T cells; format: cell-based; conditions: thapsigargin-stimulated transfected 293T; 100 μM where stated
Procedure: Phosphorylation of ASK1 at various sites was inspected. 293T cells were transfected with pcDNA-ASK1-HA. One day later, cells were incubated with DMSO (0.4%) or 100 μM compound 6239507 (#1) for two hours. Cell extracts were prepared using lysis buffer and were subjected to immunoblotting using anti-phospho ASK1 antibodies or anti HA antibody as indicated (A). The relative density of each phosphorylated ASK band was calculated by imageJ software (B). In (C), compounds from (A) were compared in activity against thapsigargin-induced cell death. […] (D) 293T cells were transfected with pcDNA-ASK1-HA and pEBG-GST-14-3-3. One day later cells were incubated with DMSO (0.4%) or 100 μM of the indicated compound for two hours. Then cells were treated with thapsigargin (20 μM) for the indicated time. Cell extracts were prepared using lysis buffer, and 14-3-3 proteins were immunoprecipitated with […] sepharose beads. ASK1 protein binding with 14-3-3 was visualized by immunoblotting using anti-HA antibody. Anti-phospho ASK1 (ser967) antibody was used to detect phosphorylation of ASK1 at each time point. […]
The ser 967 site of ASK1 is known to down-regulate ASK1 activity by phosphorylation (Goldman et al., J. Biol. Chem. 279:10442-10449, 2004) via 14-3-3 binding. […] The relative density of each phosphorylated ASK band was calculated by imageJ software. […]

| SMILES | Thapsigargin-induced phosphorylation of c-Jun (phospho-c-Jun) | Binding of ASK1 to 14-3-3 protein [1] |
| --- | --- | --- |
| CCN(CC)c1ccc(C2Nc3ccccc3NC3=C2C(=O)CC(c2ccccc2)C3)cc1 (stereo not shown) [Compound 5962123, 6-(4-diethylaminophenyl)-9-phenyl-5,6,8,9,10,11-hexahydrobenzo[c][1,5]benzodiazepin-7-one] | inhibits | increased 14-3-3 binding to ASK1; also recorded: increases binding |
| COc1ccc(C2CC(=O)C3=C(C2)Nc2ccccc2NC3c2ccccc2C(F)(F)F)cc1OC (stereo not shown) [Compound 6237735] | dose-dependent decrease |  |
| COc1ccc(C2CC(=O)C3=C(C2)Nc2ccccc2NC3c2cccc(Oc3ccccc3)c2)cc1OC (stereo not shown) [Compound 6239507] |  | inhibits dissociation of 14-3-3 from ASK1 |
